From paper PMC9446148, “Hapten designs based on aldicarb for the development of a colloidal gold immunochromatographic quantitative test strip” (Frontiers in Nutrition, 2022)

Tested on: anti-aldicarb monoclonal antibody
Assay: icELISA cross-reaction test of the monoclonal antibody
Assay type: binding, mouse
Conditions: for Cross-reaction rate: IC50 of aldicarb relative to IC50 of inhibitor; for IC50: icELISA, inhibitor against anti-aldicarb monoclonal antibody
Text: A mouse monoclonal antibody subtype identification ELISA kit was used to identify the antibody subtype. Indirect competitive ELISA (icELISA) was used to determine the 50% inhibitory mass concentration (IC50) of the monoclonal antibody against aldicarb, and IC50 was used to measure the sensitivity of the monoclonal antibody ([28]). Cross-reaction tests were used to determine specificity, in which aldicarb sulfone, aldicarb sulfoxide, thiofanox, oxamyl, methomyl, metolcarb, isoprocarb, and carbofuran were selected as inhibitors. The IC50 of each inhibitor was determined by icELISA, and the IC50 of the monoclonal antibody against aldicarb and the IC50 of the inhibitor were taken as the cross-reaction rate.
Antibody specificity is the ability of the antibody to bind to a specific antigen in preference over antigen analogs. The cross-reactivity rate is often used as an evaluation standard because an inverse relationship exists between the cross-reactivity rate and the specificity of the antibody. In this study, we selected aldicarb sulfone, aldicarb sulfoxide, thiofanox, oxamyl, methomyl, metolcarb, isoprocarb, and carbofuran, with chemical structures similar to that of aldicarb, for the specificity analysis.

| Compound | Cross-reaction rate | IC50 | also measured |
| --- | --- | --- | --- |
| CNC(=O)ON=C(CSC)C(C)(C)C [Thiofanox] | <0.978% | >0.042 µg/mL | Cross-reaction rate (listed as thiofanox): < 1% |
| CNC(=O)Oc1ccccc1C(C)C [Isoprocarb] | <0.978% | >0.042 µg/mL | Cross-reaction rate (listed as isoprocarb): < 1% |
| CNC(=O)O/N=C/C(C)(C)SC [Aldicarb, [(E)-(2-methyl-2-methylsulfanylpropylidene)amino]N-methylcarbamate] | 100% | – | – |
| CNC(=O)Oc1cccc2c1OC(C)(C)C2 [Carbofuran] | <0.978% | >0.042 µg/mL | Cross-reaction rate (listed as carbofuran): < 1% |
| CNC(=O)O/N=C/C(C)(C)S(C)(=O)=O [Aldicarb sulfone] | <0.978% | >0.042 µg/mL | Cross-reaction rate (listed as aldicarb sulfone): < 1% |
| CNC(=O)ON=C(C)SC [Methomyl] | <0.978% | >0.042 µg/mL | Cross-reaction rate (listed as methomyl): < 1% |
| CNC(=O)Oc1cccc(C)c1 [Metolcarb] | <0.978% | >0.042 µg/mL | Cross-reaction rate (listed as metolcarb): < 1% |
| CNC(=O)O/N=C/C(C)(C)[S+](C)[O-] (stereo not shown) [Aldicarb sulfoxide] | <0.978% | >0.042 µg/mL | Cross-reaction rate (listed as aldicarb sulfoxide): < 1% |
| CNC(=O)O/N=C(\SC)C(=O)N(C)C [Oxamyl] | <0.978% | >0.042 µg/mL | Cross-reaction rate (listed as oxamyl): < 1% |
